# Reference: patent US20240336938A1, “COMPOSITIONS AND METHODS FOR EFFECTIVE DELIVERY OF POLYNUCLEOTIDES TO CELLS” (WUHAN UNIVERSITY, priority 2021, published 2024)
# Key:
# STING [1] = assay: STING inhibitor pretreatment of T cells before DNA electroporation; format: cell-based, human
# STING [2] = assay: STING inhibitor pretreatment of THP-1 cells before HSV-1 stimulation, qPCR; format: cell-based, human; conditions: THP1 cells, indicated doses
smiles,measurement,setting,value
CCc1ccc(NC(=O)Nc2c[nH]c3ccccc23)cc1 [H151],IFNβ and ISG56 expression in DNA transfected T cells under inhibitor,"STING [1]; 1 μM pretreatment, qPCR",upregulated
same,rescue of DNA-induced cell death,"STING [1]; 1 μM, 16 h pretreatment, cell number 72 h post-EP",failed to rescue DNA-induced cell death
same,ISG56 and IFN-β response to HSV-1,STING [2],positive dose-response
